According to the supplement of paper PMC11451515:

How the values were obtained:
Details in all cases: 48 h
P12-Ichikawa [1] = assay: cell viability relative to DMSO control; higher = less cytotoxic
Procedure, shortened: (§1)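 Before seeding, each leukemia line was adapted for at least four passages in each medium. NOMO1 or SEM cells (500 cells/well) and P12-Ichikawa cells (1000 cells/well) went into 1536-well plates at 5 μl, then received library compounds in DMSO by pin dosing across 11 threefold concentrations, 47 μM to 0.79 nM. Readout was CellTiter-Glo One luminescence after 48 h at 37°C, and viability is given as a per-plate percentage of DMSO wells, with cell-free wells as background.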

NOMO1 [2] = assay: as above
Procedure, shortened: as §1

SEM cells [3] = assay: as above
Procedure, shortened: as §1

P12-Ichikawa [4] = assay: AUC of viability dose-response curve (% viability x log10 dose units); higher = less sensitive
Procedure, shortened: (§2)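 Leukemia cells adapted to each medium were seeded at 500 or 1000 cells/well in 1536-well plates and dosed with library compounds in DMSO at 11 threefold doses from 47 μM to 0.79 nM for 48 h at 37°C. CellTiter-Glo One luminescence was normalised per plate to DMSO and cell-free wells, then fitted with a four-parameter log-logistic model over log10 doses. Area under the curve was taken from this fit by the trapezoidal rule, with curves above full viability scaled and curves failing quality control removed.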

NOMO1 [5] = assay: as above
Procedure, shortened: as §2

SEM cells [6] = assay: as above
Procedure, shortened: as §2

CN(C)CCN1C(=O)c2cccc3cc(N)cc(c23)C1=O
cell viability [%]
Details | NOMO1 [2] | P12-Ichikawa [1] | SEM cells [3]
HPLM + 10% dialyzed FBS, 0.000781 µM | 116 | 104 | 94.4
HPLM + 10% dialyzed FBS, 0.00234 µM | 122 | 113 | 89.4
HPLM + 10% dialyzed FBS, 0.00702 µM | 118 | 108 | 110
HPLM + 10% dialyzed FBS, 0.0211 µM | 125 | 109 | 108
HPLM + 10% dialyzed FBS, 0.0632 µM | 118 | 111 | 105
HPLM + 10% dialyzed FBS, 0.19 µM | 147 | 114 | 107
HPLM + 10% dialyzed FBS, 0.569 µM | 118 | 115 | 108
HPLM + 10% dialyzed FBS, 1.71 µM | 123 | 113 | 91.1
HPLM + 10% dialyzed FBS, 5.12 µM | 93.7 | 104 | 51
HPLM + 10% dialyzed FBS, 15.4 µM | 72.3 | 74.8 | 30.3
HPLM + 10% dialyzed FBS, 46.1 µM | 26.7 | 7.88 | 3.64
RPMI 5 mM glucose + 10% FBS, 0.000781 µM | 93.3 | 101 | 70.2
RPMI 5 mM glucose + 10% FBS, 0.00234 µM | 108 | 113 | 67.3
RPMI 5 mM glucose + 10% FBS, 0.00702 µM | 135 | 107 | 71.5
RPMI 5 mM glucose + 10% FBS, 0.0211 µM | 108 | 113 | 72.1
RPMI 5 mM glucose + 10% FBS, 0.0632 µM | 121 | 122 | 73.8
RPMI 5 mM glucose + 10% FBS, 0.19 µM | 121 | 116 | 74.1
RPMI 5 mM glucose + 10% FBS, 0.569 µM | 132 | 125 | 62.6
RPMI 5 mM glucose + 10% FBS, 1.71 µM | 102 | 102 | 52.4
RPMI 5 mM glucose + 10% FBS, 5.12 µM | 105 | 92.4 | 32.1
RPMI 5 mM glucose + 10% FBS, 15.4 µM | 59.3 | 54.7 | 19.3
RPMI 5 mM glucose + 10% FBS, 46.1 µM | 13.1 | 5.84 | 2.87
RPMI 5 mM glucose + 10% dialyzed FBS, 0.000781 µM | 99.2 | 105 | 89.5
RPMI 5 mM glucose + 10% dialyzed FBS, 0.00234 µM | 110 | 112 | 95
RPMI 5 mM glucose + 10% dialyzed FBS, 0.00702 µM | 108 | 108 | 98.8
RPMI 5 mM glucose + 10% dialyzed FBS, 0.0211 µM | 111 | 102 | 102
RPMI 5 mM glucose + 10% dialyzed FBS, 0.0632 µM | 118 | 118 | 112
RPMI 5 mM glucose + 10% dialyzed FBS, 0.19 µM | 118 | 130 | 99.3
RPMI 5 mM glucose + 10% dialyzed FBS, 0.569 µM | 111 | 120 | 106
RPMI 5 mM glucose + 10% dialyzed FBS, 1.71 µM | 108 | 101 | 92
RPMI 5 mM glucose + 10% dialyzed FBS, 5.12 µM | 97.3 | 89.2 | 60.1
RPMI 5 mM glucose + 10% dialyzed FBS, 15.4 µM | 73.6 | 77.9 | 34.6
RPMI 5 mM glucose + 10% dialyzed FBS, 46.1 µM | 23.9 | 11.8 | 3.19

AUC of viability dose-response curve
Details | HPLM + 10% dialyzed FBS | RPMI 5 mM glucose + 10% FBS | RPMI 5 mM glucose + 10% dialyzed FBS
NOMO1 [5] | 424 | 427 | 435
P12-Ichikawa [4] | 437 | 418 | 431

Clc1ccc(COC(Cn2ccnc2)c2ccc(Cl)cc2Cl)c(Cl)c1 (stereo not given)
SEM cells [3], HPLM + 10% dialyzed FBS
Details | cell viability [%]
0.000781 µM | 121
0.00234 µM | 120
0.00702 µM | 112
0.0211 µM | 123
0.0632 µM | 104
0.19 µM | 115
0.569 µM | 114
1.71 µM | 124
5.12 µM | 99.3
15.4 µM | 109
46.1 µM | 70

AUC of viability dose-response curve
Details | NOMO1 [5] | P12-Ichikawa [4] | SEM cells [6]
HPLM + 10% dialyzed FBS | 425 | 452 | 462
RPMI 5 mM glucose + 10% FBS | 468 | 467 | 460
RPMI 5 mM glucose + 10% dialyzed FBS | 452 | 419 | 449

CN(C)/N=N/c1nc[nH]c1C(N)=O
SEM cells [3], HPLM + 10% dialyzed FBS
Details | cell viability [%]
0.000781 µM | 121
0.00234 µM | 122
0.00702 µM | 117
0.0211 µM | 126
0.0632 µM | 125
0.19 µM | 120
0.569 µM | 128
1.71 µM | 119
5.12 µM | 123
15.4 µM | 106
46.1 µM | 105

AUC of viability dose-response curve
Details | NOMO1 [5] | P12-Ichikawa [4] | SEM cells [6]
HPLM + 10% dialyzed FBS | 416 | 422 | 467
RPMI 5 mM glucose + 10% FBS | 435 | 410 | 462
RPMI 5 mM glucose + 10% dialyzed FBS | 392 | 374 | 307

C[S+](=O)([O-])CCNCc1ccc(-c2ccc3ncnc(Nc4ccc(OCc5cccc(F)c5)c(Cl)c4)c3c2)o1
AUC of viability dose-response curve
Details | NOMO1 [5] | P12-Ichikawa [4] | SEM cells [6]
HPLM + 10% dialyzed FBS | 456 | 448 | 442
RPMI 5 mM glucose + 10% FBS | 451 | 453 | 418
RPMI 5 mM glucose + 10% dialyzed FBS | 444 | 429 | 440

O=c1oc2c(O)c(O)cc3c(=O)oc4c(O)c(O)cc1c4c23
AUC of viability dose-response curve
Details | NOMO1 [5] | P12-Ichikawa [4] | SEM cells [6]
HPLM + 10% dialyzed FBS | 455 | 444 | 471
RPMI 5 mM glucose + 10% FBS | 454 | 452 | 467
RPMI 5 mM glucose + 10% dialyzed FBS | 466 | 458 | 451

COC(=O)N1CC2(CC2)C[C@H](C(=O)NO)[C@H]1C(=O)N1CCN(c2ccccc2)CC1
cell viability [%]
Details | P12-Ichikawa [1] | SEM cells [3]
HPLM + 10% dialyzed FBS, 0.000781 µM | 122 | 110
HPLM + 10% dialyzed FBS, 0.00234 µM | 133 | 128
HPLM + 10% dialyzed FBS, 0.00702 µM | 119 | 123
HPLM + 10% dialyzed FBS, 0.0211 µM | 125 | 116
HPLM + 10% dialyzed FBS, 0.0632 µM | 117 | 128
HPLM + 10% dialyzed FBS, 0.19 µM | 114 | 121
HPLM + 10% dialyzed FBS, 0.569 µM | 24.5 | 113
HPLM + 10% dialyzed FBS, 1.71 µM | 30.1 | 40.3
HPLM + 10% dialyzed FBS, 5.12 µM | 16.7 | 19.8
HPLM + 10% dialyzed FBS, 15.4 µM | 10.6 | 16.5
HPLM + 10% dialyzed FBS, 46.1 µM | 7.08 | 6.78
RPMI 5 mM glucose + 10% FBS, 0.000781 µM | 121 | –
RPMI 5 mM glucose + 10% FBS, 0.00234 µM | 132 | –
RPMI 5 mM glucose + 10% FBS, 0.00702 µM | 119 | –
RPMI 5 mM glucose + 10% FBS, 0.0211 µM | 129 | –
RPMI 5 mM glucose + 10% FBS, 0.0632 µM | 136 | –
RPMI 5 mM glucose + 10% FBS, 0.19 µM | 143 | –
RPMI 5 mM glucose + 10% FBS, 0.569 µM | 122 | –
RPMI 5 mM glucose + 10% FBS, 1.71 µM | 99.6 | –
RPMI 5 mM glucose + 10% FBS, 5.12 µM | 14.2 | –
RPMI 5 mM glucose + 10% FBS, 15.4 µM | 9.97 | –
RPMI 5 mM glucose + 10% FBS, 46.1 µM | 7.58 | –

AUC of viability dose-response curve
Details | HPLM + 10% dialyzed FBS | RPMI 5 mM glucose + 10% FBS | RPMI 5 mM glucose + 10% dialyzed FBS
NOMO1 [5] | 297 | 310 | 373
P12-Ichikawa [4] | 290 | 357 | 324

CC(=O)[C@]1(O)Cc2c(O)c3c(c(O)c2[C@@H](O[C@H]2C[C@H](N)[C@H](O)[C@H](C)O2)C1)C(=O)c1ccccc1C3=O
cell viability [%], SEM cells [3]
Details | HPLM + 10% dialyzed FBS | RPMI 5 mM glucose + 10% FBS | RPMI 5 mM glucose + 10% dialyzed FBS
0.000781 µM | 118 | 104 | 126
0.00234 µM | 127 | 117 | 110
0.00702 µM | 123 | 113 | 116
0.0211 µM | 124 | 104 | 125
0.0632 µM | 128 | 97.8 | 113
0.19 µM | 119 | 101 | 97.1
0.569 µM | 98.8 | 80.3 | 90.3
1.71 µM | 34.5 | 18.9 | 31.2
5.12 µM | 8.24 | 7.45 | 6.01
15.4 µM | 7.58 | 6.93 | 5.83
46.1 µM | 6.23 | 4.81 | 4.8

AUC of viability dose-response curve
Details | HPLM + 10% dialyzed FBS | RPMI 5 mM glucose + 10% FBS | RPMI 5 mM glucose + 10% dialyzed FBS
NOMO1 [5] | 364 | 367 | 374
SEM cells [6] | 320 | 313 | 313

Nc1cccc2c1C(=O)N(C1CCC(=O)NC1=O)C2=O (stereo not given)
SEM cells [3], RPMI 5 mM glucose + 10% FBS
Details | cell viability [%]
0.000781 µM | 117
0.00234 µM | 126
0.00702 µM | 103
0.0211 µM | 98
0.0632 µM | 96.9
0.19 µM | 93.9
0.569 µM | 76.6
1.71 µM | 72.5
5.12 µM | 80.2
15.4 µM | 64.1
46.1 µM | 37.7

AUC of viability dose-response curve
Details | NOMO1 [5] | P12-Ichikawa [4] | SEM cells [6]
HPLM + 10% dialyzed FBS | 462 | 436 | 462
RPMI 5 mM glucose + 10% FBS | 452 | 448 | 349
RPMI 5 mM glucose + 10% dialyzed FBS | 466 | 450 | 388

Cn1cc(-c2ccc(F)c(C(F)(F)F)c2)nc1C1CCN(c2ncnc3[nH]ncc23)CC1
AUC of viability dose-response curve
Details | NOMO1 [5] | P12-Ichikawa [4] | SEM cells [6]
HPLM + 10% dialyzed FBS | 447 | 463 | 441
RPMI 5 mM glucose + 10% FBS | 447 | 444 | 461
RPMI 5 mM glucose + 10% dialyzed FBS | 435 | 446 | 449
